From US12558333B2, “Agent for ameliorating and/or preventing sickle cell disease” (The University of Tokyo, priority 2019, dated 2026) come the findings set out here.

Counter-ions that a name gives are not always drawn.

For test [1], the system named is red blood cells collected from SCD homo mice. Briefly: Sickling by hypoxia exposure of cultured red blood cells collected from SCD homo mice. The test is classed as cell-based, mouse. As to conditions: then 4% O2 for 1.5 hours.
From the text: SCD model mice aged 8 to 20 weeks were used. In the mice, a human HBA gene and a human HBB gene are knocked in a mouse HBA gene locus and a mouse HBB gene locus, respectively, and a gene mutation (β^s mutation) causing amino acid substitution (Val6Glu) causing SCD is introduced into the human HBB gene. Furthermore, a human HBG gene is introduced, and expression switching from post-natal γ-globin to β-globin is designed to occur as in humans. […] The SCD homo mouse was anesthetized with isoflurane, and 100 μl of blood was then collected from the vein behind the jawbone into an EDTA-2Na-coated blood sampling tube using an animal lamp set. The coagulation of the blood was prevented by lightly tapping the tube. The collected blood was transferred to a 1.5 ml tube, and centrifuged for 10 minutes under conditions of 3000 rpm and 4° C. After removing the supernatant, 1 ml of PBS was added to the precipitated red blood cells, followed by mixing by inversion, to wash the cells. The red blood cells obtained by repeating this washing operation again were diluted 200 times with a cell culture solution (RPMI 1640, 10% FBS, 1% Penicillin-Streptomycin-Fungizone Cocktail), and cultured under the conditions of 37° C., 5% CO2, and 21% O2. This red blood cell culture solution was used in the experiment within 5 days from the start of culture. […]
The next test has as its system SCD homo mouse. Briefly: Bleeding stress due to blood sampling in SCD model mice (blood LDH level). As to conditions: 50/3.9 mg/kg single administration after first blood sampling, blood sampling 2 after 3 hours, vs physiological saline. Format: in vivo.
The next test deals with SCD homo mice. As to conditions: normal oxygen concentration; 4 weeks; 5-ALA hydrochloride 50 mg/kg/day and/or SFC 3.9 mg/kg/day; vs physiological saline (FIG. 10); combination P<0.05. How it is done:
All the prepared smear specimens were stained with May-Giemsa in the same manner as in Example 2, and the ratio of sickle cells to all red blood cells was measured. The rate of the sickle cells of the groups were compared with each other to examine the effect of the combination of 5-ALA hydrochloride and SFC on the rate of the in vivo sickle cells.

Method for SCD homo mouse: Using the LDH levels in blood in the SCD model mice as an index, the effect of 5-ALA hydrochloride on bleeding stress due to blood sampling in the SCD patients was examined.
The LDH levels in the blood collected before and after the administration were measured, and the effect of the combination of 5-ALA hydrochloride and SFC on bleeding stress due to blood sampling was evaluated.

For the compound `NCC(=O)CCC(=O)O` [5-ALA hydrochloride, 5-aminolevulinic acid], the “red blood cells exhibiting a sickle form” value in test [1] (50 μM for 4 hours, SCD homo mouse No. 72, vs 0 μM (FIG. 1)) is given as “remarkable decrease”. The sickling rate result in test [1] (10, 25 and 50 μM for 4 hours, vs 0 μM (FIG. 2)) is listed as “concentration-dependent decrease”. In addition, the “increase in the LDH level in blood after blood sampling” value in the test with SCD homo mouse is reported as “markedly suppressed”. Besides, the “rate of the in vivo sickle cells” value in the test on SCD homo mice was “slightly decreases”.

As for sodium ferrous citrate [SFC], in the test with SCD homo mice, the “rate of the in vivo sickle cells” value is “little effect”.
